This is an account of results in ChEMBL document CHEMBL3124752, “Small molecule disruptors of the glucokinase-glucokinase regulatory protein interaction: 1. Discovery of a novel tool compound for in vivo proof-of-concept” (J Med Chem, 2014).

Series [1] is described as follows: Fraction unbound in Sprague-Dawley rat plasma at 2 mg/kg, iv and 10 mg/kg, po. The following applies: other: intravenous and oral. It is filed as ADME, organism-based.
Series [2] is described as follows: Cmax in Sprague-Dawley rat at 10 mg/kg, po. It counts as ADME, organism-based. Set-up: dose 10 mg/kg, route oral. The following applies: in vivo.
The species entered for series [3] is Rattus norvegicus. Briefly: Toxicity in Zucker diabetic fatty rat assessed as change in plasma insulin level. It is filed as organism-based. The following applies: in vivo.
The species entered for series [4] is Rattus norvegicus. The experiment in a line: fCmax in Sprague-Dawley rat. It counts as ADME, organism-based. The following applies: in vivo.
Series [5] addresses T1, Hexokinase-4 (Homo sapiens, UniProt P35557).
T1 sequence (P35557 whole entry): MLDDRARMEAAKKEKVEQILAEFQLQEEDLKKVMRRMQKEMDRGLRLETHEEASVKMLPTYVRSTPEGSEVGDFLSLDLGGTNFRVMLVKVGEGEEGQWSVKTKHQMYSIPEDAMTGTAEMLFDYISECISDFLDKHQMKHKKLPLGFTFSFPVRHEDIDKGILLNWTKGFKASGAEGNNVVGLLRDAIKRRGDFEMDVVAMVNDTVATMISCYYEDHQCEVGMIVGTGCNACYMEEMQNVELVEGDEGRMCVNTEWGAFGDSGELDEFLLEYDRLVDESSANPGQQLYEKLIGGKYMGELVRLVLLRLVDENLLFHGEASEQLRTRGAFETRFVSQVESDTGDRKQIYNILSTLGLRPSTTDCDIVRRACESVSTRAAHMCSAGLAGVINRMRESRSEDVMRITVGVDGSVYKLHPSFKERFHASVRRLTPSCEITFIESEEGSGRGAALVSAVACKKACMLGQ
Briefly: Activation of human glucokinase.

For series [6], the target named is T2, Glucokinase regulatory protein (Rattus norvegicus, UniProt Q07071).
T2 sequence (Q07071 whole entry): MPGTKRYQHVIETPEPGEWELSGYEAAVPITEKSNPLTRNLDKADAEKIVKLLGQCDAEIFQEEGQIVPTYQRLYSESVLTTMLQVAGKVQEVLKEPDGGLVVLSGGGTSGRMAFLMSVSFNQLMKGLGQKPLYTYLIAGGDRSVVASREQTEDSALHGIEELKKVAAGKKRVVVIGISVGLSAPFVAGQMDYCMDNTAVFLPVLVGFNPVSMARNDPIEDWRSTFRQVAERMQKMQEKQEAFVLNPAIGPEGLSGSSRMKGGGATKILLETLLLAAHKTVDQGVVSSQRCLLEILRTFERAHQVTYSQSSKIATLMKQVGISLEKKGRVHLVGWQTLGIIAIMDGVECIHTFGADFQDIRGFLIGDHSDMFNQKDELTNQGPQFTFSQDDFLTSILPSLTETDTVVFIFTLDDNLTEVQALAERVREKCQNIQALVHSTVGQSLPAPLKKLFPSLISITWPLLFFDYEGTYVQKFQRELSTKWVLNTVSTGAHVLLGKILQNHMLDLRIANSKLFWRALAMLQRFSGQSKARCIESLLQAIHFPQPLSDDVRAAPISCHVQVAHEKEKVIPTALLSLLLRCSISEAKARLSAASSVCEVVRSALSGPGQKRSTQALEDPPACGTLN
The experiment in a line: Inhibition of GKRP-GK interaction in rat primary hepatocytes assessed as translocation of GK from nucleus to cytoplasm preincubated for 20 mins followed by glucose addition measured after 40 mins by fluorescence assay. It is filed as cell-based, Hepatocyte.

The species named for series [7] is Rattus norvegicus. The experiment in a line: Toxicity in Zucker diabetic fatty rat assessed as change in plasma triglyceride level. It counts as organism-based. The following applies: in vivo.
Series [8] is described as follows: Intrinsic clearance in Sprague-Dawley rat liver microsomes at 1 uM after 30 mins in presence of NADPH. It counts as ADME. The following applies: read-out: CLH. (In general: Liver microsomes are vesicles of endoplasmic reticulum, rich in cytochrome P450 enzymes.)
Series [9] relates to Rattus norvegicus. Briefly: fCmax in Wistar rat at 100 mg/kg, po. Also noted: dose 100 mg/kg, route oral. It counts as ADME, organism-based. The following applies: in vivo.
The subject of series [10] is Rattus norvegicus. The experiment in a line: Toxicity in Wistar rat assessed as induction of hypoglycemia at 100 mg/kg, po. It counts as organism-based. The following applies: in vivo. Also noted: dose 100 mg/kg, route oral.
Series [11] in a line: Oral bioavailability in Sprague-Dawley rat at 10 mg/kg. The following applies: in vivo. It is filed as ADME, organism-based.
A short description of series [12]: Volume of distribution at steady state in Sprague-Dawley rat at 2 mg/kg, iv. The following applies: in vivo, read-out: Vdss. Set-up: dose 2 mg/kg, route intravenous. It is filed as ADME, organism-based.
Series [13] in a line: Clearance in Sprague-Dawley rat at 2 mg/kg, iv. Set-up: dose 2 mg/kg, route intravenous. It is filed as ADME, organism-based. The following applies: in vivo.

The compound `C[C@H]1COCCN1C[C@H]1CN(S(=O)(=O)c2cccs2)CCN1c1ccc([C@@](C)(O)C(F)(F)F)cc1` displayed a fraction unbound in [1] of 0.037. In series [2], this compound showed a Cmax of 110 nM. Also, the results for the Activity entry in series [3], in series [7] and in [10] were “Non-toxic”, “Non-toxic” and “Toxic”, respectively. Moreover, the fCmax came to 0.004 µM in series [4] and 0.056 µM in [9]. Further, the results for the EC50 in series [5] and in [6] were greater than 50 µM and 0.082 µM, respectively. For the same compound, the microsomal CLint at 1 µM in series [8] is 608 µL/min/mg. In series [11], the bioavailability was determined as 7.86%.

In the case of `O=S(=O)(c1cccs1)N1CCN(c2ccc(C(O)(C(F)(F)F)C(F)(F)F)cc2)CC1`, in [1], the fraction unbound worked out at 0.0062. Besides, in series [2], the peak level (Cmax) was 350 nM. The EC50 in series [5] is greater than 50 µM. Besides, the Vd in series [12] was determined as 6.81 L/kg. The same compound had a bioavailability in series [11] of 28%. This compound also gave a clearance in series [13] of 44 mL/min/kg.

Regarding `O=S(=O)(c1cccs1)N1CCN(c2ccc(C(O)(C(F)(F)F)C(F)(F)F)cc2)[C@@H](CC2CCOCC2)C1`, in [6], the EC50 worked out at 5.47 µM.

Take `O=S(=O)(c1cccs1)N1CCN(c2ccc(C(O)(C(F)(F)F)C(F)(F)F)cc2)[C@@H](CN2CCOCC2)C1`: in [6], the EC50 came to 3.99 µM.

Consider `C[C@H]1COCCN1C[C@H]1CN(S(=O)(=O)c2cccs2)CCN1c1ccc(C(O)(C(F)(F)F)C(F)(F)F)cc1`, for which, in series [6], the EC50 amounted to 1.81 µM.

Consider `C[C@@](O)(c1ccc(N2CCN(S(=O)(=O)c3cccs3)C[C@@H]2CC2CCOCC2)cc1)C(F)(F)F`, for which the concentration giving a half-maximal response (EC50) in series [6] stood at 0.89 µM.

Consider `C[C@](O)(c1ccc(N2CCN(S(=O)(=O)c3cccs3)C[C@@H]2CC2CCOCC2)cc1)C(F)(F)F`, for which the EC50 in series [6] turned out to be 4.76 µM.

As to `C[C@H]1COCCN1C[C@H]1CN(S(=O)(=O)c2cccs2)CCN1c1ccc([C@](C)(O)C(F)(F)F)cc1`, in series [6], the EC50 was 0.22 µM.

The term fraction unbound denotes the share of the substance not bound to proteins or other matrix. What is called Cmax is the peak of the concentration-time curve. In general, EC50 refers to the concentration that produces a half-maximal response. The term bioavailability denotes the share of a dose that reaches the circulation, judged against a reference dose that is usually intravenous. High values mean much systemic uptake, low ones little systemic uptake. A word on the clearance: it is the rate of elimination divided by the concentration.
